This assay relates to KRAS PDC multicell spheroid viability. Kind of assay: Anticancer human tumor 825966-067-R-J1-PDC patient-derived colon carcinoma cell line growth inhibition [KRAS2]. Particulars: for viability, T/C: stronger effect = lower value. The text has this: Multicellular complex tumor spheroid response to RAS pathway inhibitors in combination with a targeted agents in patient-derived cell lines with oncogenic KRAS variants from multiple cancer types
A high-throughput screen of multi-cell type tumor spheroids was designed to identify active combinations of targeted small molecules and KRAS pathway inhibitors. Complex spheroids include a stromal component modeled by human endothelial cells (HUVEC) and fibroblasts modeled by human mesenchymal stem cells (MSCs). The concentration ranges selected for each drug and investigational agent were based upon clinically achievable concentrations if the clinical Cmax of the agent was known.
Compounds. The drugs and investigational agents: BI-3406 (NSC825286), BAY-293 (NSC824723), batoprotafib (TNO155; NSC825523), sotorasib (AMG 510; NSC818433), MRTX1257 (NSC819558), elimusertib (BAY 1895344; NSC800525), molibresib (GSK525762; NSC774829), temuterkib (LY3214996; NSC803410), venetoclax (NSC766270), alisertib (NSC759677), olaparib (NSC753686), talazoparib (NSC767125), erdafitinib (NSC781556), ipatasertib (NSC767898), cabozantinib (NSC761068), nintedanib (NSC756659), abemaciclib (NSC768073), docetaxel (NSC628503), trametinib (NSC758246), and sapanisertib (NSC764658) were obtained from the National Cancer Institute (NCI) Developmental Therapeutics Program Chemical Repository. The FDA-approved anticancer drug set is available from the Developmental Therapeutics Program. […] The stock solutions were prepared in dimethyl sulfoxide (DMSO, Sigma-Aldrich, St. Louis, MO, cat. D2650) at 800-fold the tested concentration and stored at -70 degrees C prior to their use. All drugs and investigational agents were tested over a range starting from a high concentration at or near the clinical Cmax and decreasing in half-log increments. If the clinical Cmax for an agent had not been determined, the highest concentration tested was 10 microM.
Cell Culture. All cells were maintained in an incubator at 37 degrees C and 5% CO2 with 95% humidity. The PDC lines were cultured according to standard operating procedures established by the NCI PDMR (https://pdmr.cancer.gov/sops/default.htm). Briefly, all PDCs were thawed and cultured in Matrigel-coated flasks prepared with a working solution of 1X Ham's F-12 nutrient mix, without supplementation (Invitrogen, Waltham, MA, cat. 11765054), 100 U/mL penicillin-streptomycin (Invitrogen, cat. 15140122), and 2.5% Matrigel (Corning Inc., Corning, NY, cat. 354248) for the first three passages. All PDCs were cultured in complete DMEM/F-12 media containing advanced DMEM/F-12 (Invitrogen, cat. 12634028), 4.9% defined fetal bovine serum, heat inactivated (HyClone Laboratories Inc., Logan, UT, cat. SH30070.03HI), 389 ng/mL hydrocortisone (Sigma-Aldrich, cat. H4001), 9.7 ng/mL human EGF recombinant protein (Invitrogen, cat. PHG0313), 23.4 microg/mL adenine (Sigma-Aldrich, cat. A2786), 97.3 U/mL penicillin-streptomycin (Invitrogen, cat. 15140122), 1.9 mM L-glutamine (Invitrogen, cat. 25030081), and 9.7 microM Y-27632 dihydrochloride (Tocris Bioscience, Bristol, United Kingdom, cat. 1254). The PDCs were cultured in complete DMEM/F12 media without 9.7 microM Y-27632 dihydrochloride for at least two passages prior to the screen. The established cell line HOP-62 was cultured in RPMI 1640 medium, HEPES (Invitrogen, cat. 22400105) with 10% defined fetal bovine serum (HyClone Laboratories Inc., cat. SH30070.03) and 2 mM L-glutamine (Invitrogen, cat. 25030081). The pooled donor HUVEC were cultured in endothelial cell growth medium 2 (PromoCell, Heidelberg, Germany, cat. C-22011) and the hMSC were cultured in mesenchymal stem cell growth medium 2 (PromoCell, cat. C-28009). For all experiments, HUVEC and hMSC were used at passages </=5, while the malignant cell lines were used at passages </=15. […]

Where [1] appears, read: curve of first compound, second compound 0.1 µM.
The mark [2] stands for this setting: curve of first compound, second compound 0.316 µM.
The mark [3] stands for this setting: curve of first compound, second compound 1 µM.
Setting [4] is: curve of first compound, second compound 3.16 µM.
Setting [5] is: second compound 0.1 µM, first compound 0.0316 µM.
Where [6] appears, read: second compound 0.1 µM, first compound 0.1 µM.
Setting [7] is: second compound 0.1 µM, first compound 0.316 µM.
Setting [8] is: second compound 0.1 µM, first compound 1 µM.
[9] abbreviates: second compound 0.316 µM, first compound 0.0316 µM.
The mark [10] stands for this setting: second compound 0.316 µM, first compound 0.1 µM.
Setting [11] is: second compound 0.316 µM, first compound 0.316 µM.
Where [12] appears, read: second compound 0.316 µM, first compound 1 µM.
The mark [13] stands for this setting: second compound 1 µM, first compound 0.0316 µM.
Where [14] appears, read: second compound 1 µM, first compound 0.1 µM.
Setting [15] is: second compound 1 µM, first compound 0.316 µM.
[16] abbreviates: second compound 1 µM, first compound 1 µM.
Where [17] appears, read: second compound 3.16 µM, first compound 0.0316 µM.
[18] abbreviates: second compound 3.16 µM, first compound 0.1 µM.
[19] abbreviates: second compound 3.16 µM, first compound 0.316 µM.
Setting [20] is: second compound 3.16 µM, first compound 1 µM.

Usually pIC50 stands for the IC50 on a negative log10 scale, so that one unit is a factor of ten. Usually viability, T/C stands for the ratio of treated to control.

pIC50: −log10 of the molar value. Values joined by “and” are separate entries in the source; they are usually repeats but may differ in a detail not shown here. Identical values can stand only once.
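Further: spheroids exposed to compounds for 7 days.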

For `CCNC(=O)CC1N=C(c2ccc(Cl)cc2)c2cc(OC)ccc2-n2c(C)nnc21` (stereo not given) + CC1OCC2(CCN(c3cnc(Sc4ccnc(N)c4Cl)c(N)n3)CC2)C1N, the pIC50 under setting [1] is under 5.00; the pIC50 under setting [2] is under 5.00; the pIC50 under setting [3] is under 5.00; the pIC50 under setting [4] is under 5.00; the pIC50 (curve of first compound, second compound 10 µM) was under 5.00. Further, the viability, T/C runs as follows: under setting [5], 104%; under setting [6], 107%; under setting [7], 122%; under setting [8], 82.7%; (second compound 0.1 µM, first compound 3.16 µM) 89.9%; (second compound 0.1 µM, first compound 10 µM) 84.9%. The viability, T/C under setting [9] was 101%; the viability, T/C under setting [10] is 123%; the viability, T/C under setting [11] was 119%; the viability, T/C under setting [12] is 90.3%; the viability, T/C (second compound 0.316 µM, first compound 3.16 µM) was 91.2%; the viability, T/C (second compound 0.316 µM, first compound 10 µM) is 80.1%. The viability, T/C is, setting by setting: under setting [13], 97.5%; under setting [14], 139%; under setting [15], 138%; under setting [16], 108%; (second compound 1 µM, first compound 3.16 µM) 107%; (second compound 1 µM, first compound 10 µM) 89.6%. The viability, T/C is 97.6% under setting [17]; 118% under setting [18]; 137% under setting [19]; 103% under setting [20]; 84.2% (second compound 3.16 µM, first compound 3.16 µM); 71.3% (second compound 3.16 µM, first compound 10 µM). Further, the viability, T/C runs as follows: (second compound 10 µM, first compound 0.0316 µM) 85.2%; (second compound 10 µM, first compound 0.1 µM) 91.5%; (second compound 10 µM, first compound 0.316 µM) 93.5%; (second compound 10 µM, first compound 1 µM) 87.6%; (second compound 10 µM, first compound 3.16 µM) 67.6%; (second compound 10 µM, first compound 10 µM) 71.8%.

With `C=CC(=O)N1CCN(c2nc(OCC3CCCN3C)nc3c2CCN(c2cccc4cccc(C)c24)C3)CC1CC#N` (stereo not given), the viability, T/C (compound 0.1 µM) was 87.5% [middle of 17 runs]. Further, the pIC50 was under 5.50 (compound alone, run of 08/19/2021); under 5.50 (compound alone, run of 08/26/2021); < 5.50 and 5.62 (compound alone, run of 09/02/2021).

As to `Cn1nccc1Nc1nccc(-c2cc3c(s2)C(C)(C)N(CCN2CCOCC2)C3=O)n1`, the viability, T/C reads like this: (compound 0.0316 µM) 90.9% [middle of 5 runs]; (compound 0.1 µM) 94.8% [middle of 5 runs]; (compound 0.316 µM) 109% [middle of 5 runs]; (compound 3.16 µM) 96% [middle of 5 runs]; (compound 10 µM) 81.8% [middle of 5 runs]. In addition, the pIC50 (curve of compound) is under 5.00.

In the case of `CCN1CCN(Cc2ccc(Nc3ncc(F)c(-c4cc(F)c5nc(C)n(C(C)C)c5c4)n3)nc2)CC1` + C=CC(=O)N1CCN(c2nc(OCC3CCCN3C)nc3c2CCN(c2cccc4cccc(C)c24)C3)CC1CC#N, the negative logarithm of the IC50 (pIC50) is under 6.00 (curve of first compound, second compound 0.0316 µM); under 6.00 under setting [1]; under 6.00 under setting [2]; under 6.00 under setting [3]; 6.40 under setting [4]. Besides, the viability, T/C (second compound 0.0316 µM, first compound 0.00316 µM) is 93.5%; the viability, T/C (second compound 0.0316 µM, first compound 0.01 µM) is 112%; the viability, T/C (second compound 0.0316 µM, first compound 0.0316 µM) is 91%; the viability, T/C (second compound 0.0316 µM, first compound 0.1 µM) is 113%; the viability, T/C (second compound 0.0316 µM, first compound 0.316 µM) is 158%; the viability, T/C (second compound 0.0316 µM, first compound 1 µM) was 153%. For the same molecule, the viability, T/C (second compound 0.1 µM, first compound 0.00316 µM) is 97.1%; the viability, T/C (second compound 0.1 µM, first compound 0.01 µM) is 114%; the viability, T/C under setting [5] is 108%; the viability, T/C under setting [6] was 165%; the viability, T/C under setting [7] was 198%; the viability, T/C under setting [8] was 123%. In addition, the viability, T/C runs as follows: (second compound 0.316 µM, first compound 0.00316 µM) 103%; (second compound 0.316 µM, first compound 0.01 µM) 105%; under setting [9], 119%; under setting [10], 86.5%; under setting [11], 160%; under setting [12], 115%. The viability, T/C is 95.7% (second compound 1 µM, first compound 0.00316 µM); 110% (second compound 1 µM, first compound 0.01 µM); 102% under setting [13]; 166% under setting [14]; 167% under setting [15]; 112% under setting [16]. For the same molecule, the viability, T/C by setting is: (second compound 3.16 µM, first compound 0.00316 µM) 83.7%; (second compound 3.16 µM, first compound 0.01 µM) 114%; under setting [17], 133%; under setting [18], 125%; under setting [19], 61.6%; under setting [20], 2.39%.
